Source: patent US20110206711A1, “METHOD FOR INDUCING CYTOTOXIC T-CELLS, CYTOTOXIC T-CELL INDUCER, AND PHARMACEUTICAL COMPOSITION AND VACCINE EMPLOYING SAME” (priority 2006, published 2011)
Entries after “also recorded” stand apart in the source; their conditions may differ. Ends that are not written are not given here.

test system: peptide-loaded C1R-A24 cells and T2-A24 cells; assay: Cytotoxic T-cell induction experiment (51Cr release, human PBMCs); format: cell-based; conditions: peptide 1 μM; blood samples from 8 (or 7) people; E/T ratio 10 to 20; FIG. 2 and FIG. 3
Description: The following experiment was carried out using a human blood sample.
Blood was sampled from a hepatitis C patient or a healthy individual from whom informed consent had been obtained in advance.
To blood cells (Peripheral blood mononuclear cells: PBMCs) sown on 96 well plates peptides of SEQ ID NOS: 1 to 14 were added weekly for 5 weeks so as to give final concentrations of 1 μM, and cytotoxic T-cells were activated in media to which was added 10% FCS and 5 ng/mL of IL-2, thus giving T-cell samples.
Cells were labeled with ^51Cr by adding the sodium salt of ^51Cr (sodium chromate) to C1R-A24 cells and T2-A24 cells (human B/T cultured cell strain having no TAP peptide transporter and expressing the HLA-A*2402 gene: supplied by Dr. Tsuboi, Faculty of Medicine, Osaka University) at 37° C. or 26° C. for 1 hour. Peptides of SEQ ID NOS: 1 to 14 were added thereto so as to make final concentrations of 1 μM, thus forming target cells having each peptide binding to the surface of the cells.
After the cytotoxic T-cells and the target cells prepared above were mixed at an E/T ratio (effector to target) of 10 to 20 and allowed to stand at 37° C. for 3.5 hours, the radioactivity of ^51Cr released in the culture supernatant was measured.

| Sequence | capability of inducing cytotoxic T-cells |
| --- | --- |
| FWAKMMYNF [SEQ ID NO: 14] | did not show a capability of inducing cytotoxic T-cells; also recorded: none of the blood samples showed a capability of inducing cytotoxic T-cells |

test system: HCV genome-expressing RzM6 cells; assay: Cytolysis assay against HCV genome-expressing cells; format: cell-based, human; conditions: RzM6 cells vs HepG2 control; E/T ratio 10; 3 hours; FIG. 4
Source text: RzM6 cells were formed by transfecting HepG2, which is a human liver cell strain, with an HCV gene that had been modified so as to be able to conditionally induce expression of an HCV1b full genome (AY045702) in the presence of Cre (Activation of the CK1-CDK-Rb-E2F pathway in full genome hepatitis C virus-expressing cells. Tsukiyama-Kohara et al., J. Biol. Chem. 279, 14531-14541, 2004, RzM6 being supplied by Dr. Michinori Obara, Tokyo Metropolitan Institute of Medical Science).
In the HCV expression method, since the same RzM6 cells are doubly transfected with the Cre gene inserted in a conditional expression cassette arranged downstream of a Tamoxifen-inducible promoter, by adding tamoxifen, expression of Cre is induced, and as a result expression of the HCV gene can be induced. The RzM6 cells for which expression of the HCV gene was induced were labeled with ^51Cr by the same method as for the C1R-A24 cells, thus serving as target cells.
The cytotoxic T-cells prepared above and RzM6 target cells or HepG2 cells with no HCV introduced as a control were mixed at an E/T ratio of 10 and allowed to stand at 37° C. for 3 hours, and the radioactivity of ^51Cr released into the culture supernatant was measured.

| Sequence | cytolytic activity specific to HCV-expressing cells by the cytotoxic T-cells |
| --- | --- |
| ALYGVYPLL [SEQ ID NO: 5] | a cytolytic activity specific to HCV-expressing cells by the cytotoxic T-cells was exhibited |
| AYSQQTRGL [SEQ ID NO: 8] | a cytolytic activity specific to HCV-expressing cells by the cytotoxic T-cells was exhibited |
| ILMTHFFSI [SEQ ID NO: 13] | a cytolytic activity specific to HCV-expressing cells by the cytotoxic T-cells was exhibited |
| ILPCSFTTL [SEQ ID NO: 4] | a cytolytic activity specific to HCV-expressing cells by the cytotoxic T-cells was exhibited |
| ITYSTYCKF [SEQ ID NO: 9] | a cytolytic activity specific to HCV-expressing cells by the cytotoxic T-cells was exhibited |
| RYAPACKPL [SEQ ID NO: 10] | a cytolytic activity specific to HCV-expressing cells by the cytotoxic T-cells was exhibited |
| SYTWTGALI [SEQ ID NO: 12] | a cytolytic activity specific to HCV-expressing cells by the cytotoxic T-cells was exhibited |
| WHYPCTVNF [SEQ ID NO: 2] | a cytolytic activity specific to HCV-expressing cells by the cytotoxic T-cells was exhibited |

molecular target: HLA-A24 molecule (product of the HLA-A*2402 gene) (Homo sapiens, UniProt P04439, D101N/D140Y/D185E/E176V/E190D/F33S/G103R/G107R/I119L/I121M/I306V/K335N/L105A/L180Q/L300P/N151K/N90K/Q86E/Q94H/R106L/R138H/R89G/T104I/T345S/V100E/W191G/Y123F); assay: Experiment of binding peptide to HLA-A24 molecule (C1R-A24 cells, flow cytometry); conditions: not given

| Sequence | binding in HLA molecule binding experiment |
| --- | --- |
| FWAKMMYNF [SEQ ID NO: 14] | high binding |
